The values that follow are results of earlier work, collected in US20230293063A1 (SOMNUS SCIENTIFIC LTD, priority 2020, published 2023).

In the case of `CC(C)c1cccc(C(C)C)c1O` [propofol, 2,6-diisopropylphenol], the “fraction metabolized in the liver” value (Smits, Annaert and Allegaert, 2017) is on record as 90%. In addition, for the setting “blood”, the “free fraction of the total drug concentration” value is listed as 2%.
